Experimental data published in patent EP2902382A1, “Primary hydroxylamines and uses thereof” (Fundació Institut de Recerca Biomèdica IRB (Barcelona), priority 2014, dated 2015).
pIC50: −log10 of the molar value. Values after ≈ are worked out from the molar mass of the structure shown. Counter-ions that a name gives are not always drawn. Like-named read-outs stand apart in the source and are kept apart here.

Columns and labels:
Pseudomonas aeruginosa = assay: Minimum inhibitory concentration (MIC), microtiter broth dilution method; type: cell-based, Pseudomonas aeruginosa ATCC 15692 (CECT 4122); details: read-out: MIC (minimum inhibitory concentration)
[1] = test system: murine macrophage J774 cell line; assay: Cytotoxicity, MTT colorimetric cell viability assay; type: cell-based; details: Mus musculus, J774 macrophages, 24 and 48 h of exposure (time not given), read-out: Cytoxicity (IC50)
Bacillus anthracis = assay: microbe, parasite or virus in culture; type: cell-based, Bacillus anthracis Sterne 7700 pXO1-/pXO2-; details: 9 h, read-out: MIC (minimum inhibitory concentration)
Staphylococcus aureus = assay: Minimum inhibitory concentration (MIC), microtiter broth dilution method; type: cell-based, Staphylococcus aureus ATCC 12600 (CECT 86); details: read-out: MIC (minimum inhibitory concentration)
P. aeruginosa = assay: Capacity to inhibit the formation of bacterial biofilms; type: cell-based; details: 37°C for 48 h without agitation, viable count (cfu/ml), Fig. 1
Enterococcus faecalis = assay: Minimum inhibitory concentration (MIC), microtiter broth dilution method; type: cell-based, Enterococcus faecalis ATCC 19433 (CECT 481); details: TSB broth, 37°C for 9 h, mean of triplicates
S. aureus = type: cell-based
Staphylococcus epidermis = assay: Minimum inhibitory concentration (MIC), microtiter broth dilution method; type: cell-based, Staphylococcus epidermidis ATCC 1798 (CECT 231); details: TSB broth, 37°C for 9 h, mean of triplicates
[2] = TSB broth, 37°C for 9 h, mean of triplicates

SMILES | MIC (Pseudomonas aeruginosa; 9 h) | pIC50 [1] | MIC (Bacillus anthracis) | MIC (Staphylococcus aureus; 9 h) | MIC (Pseudomonas aeruginosa; [2]) | MIC (Staphylococcus aureus; [2]) | biofilm formation (P. aeruginosa) | MIC (Enterococcus faecalis) | biofilm formation (S. aureus) | MIC (Staphylococcus epidermis)
ONCc1ccccc1 [Comp 7, N-Benzyl-hydroxylamine hydrochloride, reference compound] | > 4000 µM | < 2.40 | > 4000 µM | > 4000 µM | – | – | – | – | – | –
COc1cccc(OC)c1CNO [Comp 8, N-(2,6-Dimethoxybenzyl)-hydroxylamine, reference compound] | – | – | > 4000 µM | – | > 4000 µM | > 4000 µM | – | – | – | –
ONCCc1ccccc1 [Example 1, N-phenethyl-hydroxylamine] | – | 2.72 | 250 to 500 µM (≈ 34.3 to 68.6 µg/mL) | – | 500 to 1000 µM (≈ 68.6 to 137 µg/mL) | 250 to 500 µM (≈ 34.3 to 68.6 µg/mL) | inhibit | 1000 to 2000 µM (≈ 137 to 274 µg/mL) | inhibit | –
ONCC1CCCCC1 [Example 2, N-cyclohexylmethyl-hydroxylamine] | – | 2.88 | 250 to 500 µM (≈ 32.3 to 64.6 µg/mL) | – | 125 to 250 µM (≈ 16.2 to 32.3 µg/mL) | 250 to 500 µM (≈ 32.3 to 64.6 µg/mL) | inhibit | 500 to 1000 µM (≈ 64.6 to 129 µg/mL) | inhibit | 250 to 500 µM (≈ 32.3 to 64.6 µg/mL)
ONCc1ccc(F)cc1 [Example 3, N-(4-fluorobenzyl)-hydroxylamine] | – | 2.89 | 125 to 625 µM (≈ 17.6 to 88.2 µg/mL) | – | 1000 to 2000 µM (≈ 141 to 282 µg/mL) | 500 to 1000 µM (≈ 70.6 to 141 µg/mL) | inhibit | 500 to 1000 µM (≈ 70.6 to 141 µg/mL) | inhibit | 125 to 250 µM (≈ 17.6 to 35.3 µg/mL)
COc1ccc(CNO)c(OC)c1 [Example 4, N-(2,4-dimethoxybenzyl)-hydroxylamine] | – | 2.64 | 125 to 250 µM (≈ 22.9 to 45.8 µg/mL) | – | 1000 to 2000 µM (≈ 183 to 366 µg/mL) | 500 to 1000 µM (≈ 91.6 to 183 µg/mL) | inhibit | 500 to 1000 µM (≈ 91.6 to 183 µg/mL) | inhibit | 125 to 250 µM (≈ 22.9 to 45.8 µg/mL)
COc1ccc(CNO)c(C)c1 [Example 5, N-(4-methoxy-2-methylbenzyl)-hydroxylamine] | – | 2.66 | 125 to 625 µM (≈ 20.9 to 105 µg/mL) | – | 1000 to 2000 µM (≈ 167 to 334 µg/mL) | > 4000 µM | – | 250 to 500 µM (≈ 41.8 to 83.6 µg/mL) | – | 250 to 500 µM (≈ 41.8 to 83.6 µg/mL)
ONCc1cc(C(F)(F)F)cc(C(F)(F)F)c1 [Example 6, N-(3,5-bis-trifluoromethylbenzyl)-hydroxylamine] | – | 2.68 | 125 to 625 µM (≈ 32.4 to 162 µg/mL) | – | 1000 to 2000 µM (≈ 259 to 518 µg/mL) | 250 to 500 µM (≈ 64.8 to 130 µg/mL) | – | 500 to 1000 µM (≈ 130 to 259 µg/mL) | – | 125 to 250 µM (≈ 32.4 to 64.8 µg/mL)
